ChEMBL document CHEMBL4422618, “Translational impact of novel widely pharmacological characterized mofezolac-derived COX-1 inhibitors combined with bortezomib on human multiple myeloma cell lines viability” (Eur J Med Chem, 2019)
The source made the active and inactive calls. No cut-off for these calls is given here.

Assays:
[1] = molecular target: T1, Prostaglandin G/H synthase 1 (Ovis aries, UniProt P05979); assay: Inhibition of ovine COX1 using arachidonic acid as substrate by colorimetric assay
T1 sequence (P05979 whole entry): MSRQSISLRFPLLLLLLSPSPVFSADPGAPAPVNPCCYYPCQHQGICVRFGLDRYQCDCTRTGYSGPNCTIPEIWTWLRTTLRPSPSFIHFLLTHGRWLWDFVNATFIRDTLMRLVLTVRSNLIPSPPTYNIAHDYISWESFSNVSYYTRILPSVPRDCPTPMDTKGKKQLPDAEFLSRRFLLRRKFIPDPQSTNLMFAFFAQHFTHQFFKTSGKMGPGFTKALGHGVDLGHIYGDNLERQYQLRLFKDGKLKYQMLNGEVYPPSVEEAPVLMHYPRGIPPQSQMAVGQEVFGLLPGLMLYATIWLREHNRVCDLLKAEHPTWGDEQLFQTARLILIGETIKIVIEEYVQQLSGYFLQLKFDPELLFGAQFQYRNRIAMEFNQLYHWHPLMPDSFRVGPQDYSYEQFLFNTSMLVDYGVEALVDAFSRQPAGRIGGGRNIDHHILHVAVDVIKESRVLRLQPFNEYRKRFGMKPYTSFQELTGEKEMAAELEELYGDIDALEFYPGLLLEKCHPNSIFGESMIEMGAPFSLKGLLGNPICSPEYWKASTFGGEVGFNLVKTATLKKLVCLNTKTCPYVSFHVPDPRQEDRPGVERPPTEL

NCI-H929 [2] = assay: Induction of apoptosis in human NCI-H929 cells assessed as early apoptotic cells at 42 nM after 48 hrs in presence of bortezomib by Annexin-V/propidium iodide staining based flow cytometric method (reference value: 17.1%); format: functional
RPMI-8226 [3] = assay: Cell cycle arrest in human RPMI8226 cells assessed as accumulation at G0/G1 phase at 42 nM after 48 hrs by propidium iodide/RNase staining based flow cytometric method; format: functional
Plasma = assay: Anticoagulant activity in human platelet poor plasma assessed as prothrombin time at 100 uM incubated for 15 mins at room temperature and subsequent incubation for 2 mins at 37 degreeC followed by PBS addition and measured after 3 mins for every secs in presence of calcium thromboplastin; format: functional
[4] = Hemolytic activity in erythrocytes (unknown origin) at 100 uM after 3 hrs by spectrophotometric analysis; format: ADME, cell-based, Erythrocyte; settings: read-out: Activity
RPMI-8226 [5] = assay: Induction of apoptosis in human RPMI8226 cells assessed as late apoptotic cells at 42 nM after 48 hrs in presence of bortezomib by Annexin-V/propidium iodide staining based flow cytometric method (reference value: 0.21%); format: functional
NCI-H929 [6] = assay: Induction of apoptosis in human NCI-H929 cells assessed as viable cells at 42 nM after 48 hrs by Annexin-V/propidium iodide staining based flow cytometric method (reference value: 82.6%); format: functional; settings: NCI-H929, 48 h, read-out: Activity
RPMI-8226 [7] = assay: Cell cycle arrest in human RPMI8226 cells assessed as accumulation at S phase at 42 nM after 48 hrs by propidium iodide/RNase staining based flow cytometric method; format: functional
NCI-H929 [8] = assay: Cell cycle arrest in human NCI-H929 cells assessed as accumulation at S phase at 42 nM in presence of bortezomib after 48 hrs by propidium iodide/RNase staining based flow cytometric method relative to bortezomib alone; format: functional
RPMI-8226 [9] = assay: Induction of apoptosis in human RPMI8226 cells assessed as necrotic cells at 42 nM after 48 hrs in presence of bortezomib by Annexin-V/propidium iodide staining based flow cytometric method (reference value: 0.090%); format: functional
[10] = Genotoxicity in Escherichia coli PQ37 at 500 uM after overnight incubation by SOS chromotest; format: toxicity

- IC50 [1]: 42 nM
Compound: C=Cc1onc(-c2ccc(OC)cc2)c1-c1ccc(OC)cc1
- Activity (NCI-H929 [2]): 60.6%
- Activity (RPMI-8226 [3]): inactive
- PT (Plasma): 13.7 s
- hemolysis at 3 h, 100 µM [4]: 0%
- Activity (RPMI-8226 [5]): 0.37%
- viability at 0.042 µM (NCI-H929 [6]): 83%
- Activity (RPMI-8226 [7]): inactive
- Activity (NCI-H929 [8]): 15%
- Activity (RPMI-8226 [9]): 0.01%
- Activity [10]: Non-Toxic
